Measurements as given in ChEMBL document CHEMBL3108675, “Structure, absolute configuration, and antidiarrheal activity of a thymol derivative from Ageratina cylindrica” (J Nat Prod, 2014).
Counter-ions that a name gives are not always drawn.

Columns and labels:
Entamoeba histolytica = assay: Antiprotozoal activity against Entamoeba histolytica HM-1:IMSS; assay type: functional, organism-based
Giardia intestinalis = assay: Antiprotozoal activity against Giardia lamblia IMSS:1090:1; assay type: functional, organism-based; settings: Giardia duodenalis
Rattus norvegicus = species: Rattus norvegicus; assay: Antidiarrheal activity in rat assessed as inhibition of charcoal-gum acacia-induced hyperperistalsis; assay type: functional; settings: read-out: ID50 (the source's name)

| Structure (SMILES) | IC50 (Entamoeba histolytica) [µM] | IC50 (Giardia intestinalis) [µM] | ED50 (Rattus norvegicus) [µmol/kg] |
| --- | --- | --- | --- |
| CC(C)C(=O)Oc1cc(C=O)c(O)cc1[C@@]1(COC(=O)c2ccccc2)CO1 | 185 | 167 | 0.85 |
| CC[C@H]1CN2CCc3cc(OC)c(OC)cc3[C@@H]2C[C@@H]1C[C@H]1NCCc2cc(OC)c(OC)cc21 [EMETINE] |  | 0.83 |  |
| CN(C)C(=O)C(CCN1CCC(O)(c2ccc(Cl)cc2)CC1)(c1ccccc1)c1ccccc1 [LOPERAMIDE HYDROCHLORIDE] |  |  | 0.2 |

Second part, led by results:

| IC50 (Entamoeba histolytica) [µM] | IC50 (Giardia intestinalis) [µM] | Structure (SMILES) | ED50 (Rattus norvegicus) [µmol/kg] |
| --- | --- | --- | --- |
| 226 | 117 | Oc1cc(O)c2c(c1)OC(c1ccc(O)c(O)c1)C(O)C2 (stereo not drawn) [CATECHIN] |  |
| 0.23 |  | Cc1ncc([N+](=O)[O-])n1CCO [METRONIDAZOLE] |  |
